# According to PubChem BioAssay (NCI):
#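 In this assay, cells in 96-well plates receive the compound at five concentrations for 48 hours. Endpoints are linearly interpolated between the surrounding concentrations. The concentration for full growth arrest is given as TGI.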
# Columns and labels:
# Experiment in all cases: NCI anticancer screen, dose series, 48 h
# 786-0 renal = test system: 786-0 renal
# A549 NSCLC = test system: A549 NSCLC
# ACHN renal = test system: ACHN renal
# BT-549 breast = test system: BT-549 breast
# CAKI-1 renal = test system: CAKI-1 renal
# CCRF-CEM leukemia = test system: CCRF-CEM leukemia
# COLO 205 colon = test system: COLO 205 colon
# DU-145 prostate = test system: DU-145 prostate
# EKVX NSCLC = test system: EKVX NSCLC
# HCC-2998 colon = test system: HCC-2998 colon
# HCT-116 colon = test system: HCT-116 colon
# HCT-15 colon = test system: HCT-15 colon
# HL-60(TB) leukemia = test system: HL-60(TB) leukemia
# HOP-62 NSCLC = test system: HOP-62 NSCLC
# HOP-92 NSCLC = test system: HOP-92 NSCLC
# HS 578T breast = test system: HS 578T breast
# HT29 colon = test system: HT29 colon
# IGROV1 ovarian = test system: IGROV1 ovarian
# K-562 leukemia = test system: K-562 leukemia
# KM12 colon = test system: KM12 colon
# LOX IMVI melanoma = test system: LOX IMVI melanoma
# M14 melanoma = test system: M14 melanoma
# MALME-3M melanoma = test system: MALME-3M melanoma
# MCF7 breast = test system: MCF7 breast
# MDA-MB-231 breast = test system: MDA-MB-231 breast
# MDA-MB-435 = test system: MDA-MB-435
# MDA-N = test system: MDA-N
# MOLT-4 leukemia = test system: MOLT-4 leukemia
# NCI-H226 lung = test system: NCI-H226 lung
# NCI-H23 lung = test system: NCI-H23 lung
# NCI-H522 lung = test system: NCI-H522 lung
# NCI/ADR-RES ovarian = test system: NCI/ADR-RES ovarian
# OVCAR-3 ovarian = test system: OVCAR-3 ovarian
# OVCAR-4 ovarian = test system: OVCAR-4 ovarian
# OVCAR-5 ovarian = test system: OVCAR-5 ovarian
# OVCAR-8 ovarian = test system: OVCAR-8 ovarian
# PC-3 prostate = test system: PC-3 prostate
# RPMI-8226 leukemia = test system: RPMI-8226 leukemia
# RXF 393 renal = test system: RXF 393 renal
# SF-268 CNS = test system: SF-268 CNS
# SF-295 CNS = test system: SF-295 CNS
# SF-539 CNS = test system: SF-539 CNS
# SK-MEL-2 melanoma = test system: SK-MEL-2 melanoma
# SK-MEL-28 melanoma = test system: SK-MEL-28 melanoma
# SK-MEL-5 melanoma = test system: SK-MEL-5 melanoma
# SK-OV-3 ovarian = test system: SK-OV-3 ovarian
# SN12C renal = test system: SN12C renal
# SNB-19 CNS = test system: SNB-19 CNS
# SNB-75 CNS = test system: SNB-75 CNS
# SR leukemia = test system: SR leukemia
# SW-620 colon = test system: SW-620 colon
# T-47D breast = test system: T-47D breast
# TK-10 renal = test system: TK-10 renal
# U251 CNS = test system: U251 CNS
# UACC-257 melanoma = test system: UACC-257 melanoma
# UACC-62 melanoma = test system: UACC-62 melanoma
# UO-31 renal = test system: UO-31 renal
# A498 renal = test system: A498 renal
# NCI-H460 lung = test system: NCI-H460 lung
smiles,measurement,setting,value
CCOC(=O)C(Cl)(NC(=O)c1c(F)c(F)c(F)c(F)c1F)C(F)(F)F (configuration not stated),TGI,786-0 renal,> 100 µM
same,TGI,A549 NSCLC,> 100 µM
same,TGI,ACHN renal,> 100 µM
same,TGI,BT-549 breast,> 100 µM
same,TGI,CAKI-1 renal,36.4 µM
same,TGI,CCRF-CEM leukemia,> 100 µM
same,TGI,COLO 205 colon,> 100 µM
same,TGI,DU-145 prostate,> 100 µM
same,TGI,EKVX NSCLC,> 100 µM
same,TGI,HCC-2998 colon,> 100 µM
same,TGI,HCT-116 colon,> 100 µM
same,TGI,HCT-15 colon,> 100 µM
same,TGI,HL-60(TB) leukemia,> 100 µM
same,TGI,HOP-62 NSCLC,> 100 µM
same,TGI,HOP-92 NSCLC,75.3 µM
same,TGI,HS 578T breast,> 100 µM
same,TGI,HT29 colon,> 100 µM
same,TGI,IGROV1 ovarian,> 100 µM
same,TGI,K-562 leukemia,> 100 µM
same,TGI,KM12 colon,> 100 µM
same,TGI,LOX IMVI melanoma,> 100 µM
same,TGI,M14 melanoma,> 100 µM
same,TGI,MALME-3M melanoma,> 100 µM
same,TGI,MCF7 breast,> 100 µM
same,TGI,MDA-MB-231 breast,> 100 µM
same,TGI,MDA-MB-435,> 100 µM
same,TGI,MDA-N,> 100 µM
same,TGI,MOLT-4 leukemia,> 100 µM
same,TGI,NCI-H226 lung,> 100 µM
same,TGI,NCI-H23 lung,> 100 µM
same,TGI,NCI-H522 lung,54.7 µM
same,TGI,NCI/ADR-RES ovarian,> 100 µM
same,TGI,OVCAR-3 ovarian,> 100 µM
same,TGI,OVCAR-4 ovarian,> 100 µM
same,TGI,OVCAR-5 ovarian,> 100 µM
same,TGI,OVCAR-8 ovarian,> 100 µM
same,TGI,PC-3 prostate,> 100 µM
same,TGI,RPMI-8226 leukemia,> 100 µM
same,TGI,RXF 393 renal,> 100 µM
same,TGI,SF-268 CNS,> 100 µM
same,TGI,SF-295 CNS,> 100 µM
same,TGI,SF-539 CNS,> 100 µM
same,TGI,SK-MEL-2 melanoma,> 100 µM
same,TGI,SK-MEL-28 melanoma,> 100 µM
same,TGI,SK-MEL-5 melanoma,> 100 µM
same,TGI,SK-OV-3 ovarian,> 100 µM
same,TGI,SN12C renal,> 100 µM
same,TGI,SNB-19 CNS,> 100 µM
same,TGI,SNB-75 CNS,> 100 µM
same,TGI,SR leukemia,> 100 µM
same,TGI,SW-620 colon,> 100 µM
same,TGI,T-47D breast,> 100 µM
same,TGI,TK-10 renal,> 100 µM
same,TGI,U251 CNS,> 100 µM
same,TGI,UACC-257 melanoma,> 100 µM
same,TGI,UACC-62 melanoma,> 100 µM
same,TGI,UO-31 renal,> 100 µM
Brc1ccc2c([C@H]3CN[C@@H](c4c[nH]c5cc(Br)ccc45)CN3)c[nH]c2c1,TGI,786-0 renal,3.18 µM
same,TGI,A498 renal,3.6 µM
same,TGI,A549 NSCLC,7.39 µM
same,TGI,ACHN renal,9.87 µM
same,TGI,BT-549 breast,24.7 µM
same,TGI,CAKI-1 renal,11.3 µM
same,TGI,CCRF-CEM leukemia,8.64 µM
same,TGI,COLO 205 colon,2.91 µM
same,TGI,DU-145 prostate,9.98 µM
same,TGI,EKVX NSCLC,23.2 µM
same,TGI,HCC-2998 colon,3.02 µM
same,TGI,HCT-116 colon,3.03 µM
same,TGI,HCT-15 colon,11.2 µM
same,TGI,HL-60(TB) leukemia,4.22 µM
same,TGI,HOP-62 NSCLC,23.8 µM
same,TGI,HOP-92 NSCLC,12.2 µM
same,TGI,HS 578T breast,25.2 µM
same,TGI,HT29 colon,4.01 µM
same,TGI,IGROV1 ovarian,8.2 µM
same,TGI,K-562 leukemia,4.02 µM
same,TGI,KM12 colon,3.28 µM
same,TGI,LOX IMVI melanoma,3.36 µM
same,TGI,M14 melanoma,5.91 µM
same,TGI,MALME-3M melanoma,7.73 µM
same,TGI,MCF7 breast,4 µM
same,TGI,MDA-MB-231 breast,6.65 µM
same,TGI,MDA-MB-435,3.11 µM
same,TGI,MDA-N,3.04 µM
same,TGI,MOLT-4 leukemia,6.48 µM
same,TGI,NCI-H226 lung,20.8 µM
same,TGI,NCI-H23 lung,8.95 µM
same,TGI,NCI-H460 lung,4.15 µM
same,TGI,NCI-H522 lung,3.15 µM
same,TGI,NCI/ADR-RES ovarian,17.1 µM
same,TGI,OVCAR-3 ovarian,3.94 µM
same,TGI,OVCAR-4 ovarian,4.69 µM
same,TGI,OVCAR-5 ovarian,10.5 µM
same,TGI,OVCAR-8 ovarian,3.38 µM
same,TGI,PC-3 prostate,15.2 µM
same,TGI,RPMI-8226 leukemia,7.15 µM
same,TGI,RXF 393 renal,6.6 µM
same,TGI,SF-268 CNS,20.4 µM
same,TGI,SF-295 CNS,19.3 µM
same,TGI,SF-539 CNS,7.46 µM
same,TGI,SK-MEL-2 melanoma,9.76 µM
same,TGI,SK-MEL-28 melanoma,27.2 µM
same,TGI,SK-MEL-5 melanoma,15.6 µM
same,TGI,SK-OV-3 ovarian,22.7 µM
same,TGI,SN12C renal,12.4 µM
same,TGI,SNB-19 CNS,21.8 µM
same,TGI,SNB-75 CNS,17.8 µM
same,TGI,SR leukemia,6.77 µM
same,TGI,SW-620 colon,3.28 µM
same,TGI,T-47D breast,12.8 µM
same,TGI,TK-10 renal,18.5 µM
same,TGI,U251 CNS,4.19 µM
same,TGI,UACC-257 melanoma,28.1 µM
same,TGI,UACC-62 melanoma,23.2 µM
same,TGI,UO-31 renal,13.8 µM
CC1C2CC(C(S(=O)(=O)N3CCOCC3)/C2=N\O)C1(C)C (configuration not stated),TGI,786-0 renal,> 100 µM
same,TGI,A498 renal,> 100 µM
same,TGI,A549 NSCLC,> 100 µM
same,TGI,ACHN renal,> 100 µM
same,TGI,BT-549 breast,> 100 µM
same,TGI,CAKI-1 renal,> 100 µM
same,TGI,CCRF-CEM leukemia,> 100 µM
same,TGI,COLO 205 colon,> 100 µM
same,TGI,DU-145 prostate,> 100 µM
same,TGI,EKVX NSCLC,> 100 µM
same,TGI,HCC-2998 colon,> 100 µM
same,TGI,HCT-116 colon,> 100 µM
same,TGI,HCT-15 colon,> 100 µM
same,TGI,HL-60(TB) leukemia,> 100 µM
same,TGI,HOP-62 NSCLC,> 100 µM
same,TGI,HOP-92 NSCLC,> 100 µM
same,TGI,HS 578T breast,> 100 µM
same,TGI,HT29 colon,> 100 µM
same,TGI,IGROV1 ovarian,> 100 µM
same,TGI,K-562 leukemia,> 100 µM
same,TGI,KM12 colon,> 100 µM
same,TGI,LOX IMVI melanoma,> 100 µM
same,TGI,M14 melanoma,> 100 µM
same,TGI,MALME-3M melanoma,> 100 µM
same,TGI,MCF7 breast,> 100 µM
same,TGI,MDA-MB-231 breast,> 100 µM
same,TGI,MDA-MB-435,> 100 µM
same,TGI,MDA-N,> 100 µM
same,TGI,MOLT-4 leukemia,> 100 µM
same,TGI,NCI-H226 lung,> 100 µM
same,TGI,NCI-H23 lung,> 100 µM
same,TGI,NCI-H460 lung,> 100 µM
same,TGI,NCI-H522 lung,> 100 µM
same,TGI,NCI/ADR-RES ovarian,> 100 µM
same,TGI,OVCAR-3 ovarian,> 100 µM
same,TGI,OVCAR-4 ovarian,> 100 µM
same,TGI,OVCAR-8 ovarian,> 100 µM
same,TGI,PC-3 prostate,> 100 µM
same,TGI,RPMI-8226 leukemia,> 100 µM
same,TGI,RXF 393 renal,> 100 µM
same,TGI,SF-268 CNS,> 100 µM
same,TGI,SF-295 CNS,> 100 µM
same,TGI,SF-539 CNS,> 100 µM
same,TGI,SK-MEL-28 melanoma,> 100 µM
same,TGI,SK-MEL-5 melanoma,> 100 µM
same,TGI,SK-OV-3 ovarian,> 100 µM
same,TGI,SN12C renal,> 100 µM
same,TGI,SNB-19 CNS,> 100 µM
same,TGI,SNB-75 CNS,> 100 µM
same,TGI,SR leukemia,> 100 µM
same,TGI,SW-620 colon,> 100 µM
same,TGI,T-47D breast,> 100 µM
same,TGI,TK-10 renal,> 100 µM
same,TGI,UACC-257 melanoma,> 100 µM
same,TGI,UACC-62 melanoma,> 100 µM
same,TGI,UO-31 renal,> 100 µM
